Data on 43 compounds can be found in patent US20240217968A1, “PHARMACEUTICAL COMPOUND” (DUKE STREET BIO LIMITED, priority 2021, published 2024).

The target in the assay is T1, recombinant human Flag-tagged PARP7 (amino acids 456-657) (Homo sapiens, UniProt Q7Z3E1).
T1 construct: recombinant human Flag-tagged PARP7 (amino acids 456-657)
T1 sequence (Q7Z3E1 456-657): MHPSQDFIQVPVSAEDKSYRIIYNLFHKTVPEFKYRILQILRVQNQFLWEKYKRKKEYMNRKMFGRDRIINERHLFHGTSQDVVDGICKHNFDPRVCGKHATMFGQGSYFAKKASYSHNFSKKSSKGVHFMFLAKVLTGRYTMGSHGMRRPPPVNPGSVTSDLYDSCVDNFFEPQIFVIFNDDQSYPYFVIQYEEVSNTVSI
Kind of assay: PARP7 biochemical DELFIA assay (auto-MARylation). As to conditions: DELFIA readout, IC50 class. As for the experimental part: A suitable assay may be conducted using 10-30 nM PARP7 (amino acids 456-657), 2 μM biotin-NAD assay solution in 20 mM HEPES (pH 7.5), 100 mM NaCl, 2 mM DTT, 0.1% BSA (w/v), 0.02% Tween (v/v) assay buffer. MARylation may take place for 2-3 h at room temperature and may be detected using a dissociation-enhanced lanthanide fluorescence immunoassay (DELFIA) readout. This assay format has been recently utilised for screening for modulators of PARP7 and other MonoPARP enzymes ([…]. et al. Forced Self-Modification Assays as a Strategy to Screen MonoPARP Enzymes. SLAS Discovery. 25; 241-252, (2020)). A particularly suitable assay is described in the Examples below. Optiplate HB 384-well plates were coated with anti-FLAG antibody, supplied as a 4 mg/ml solution, using a Na2CO3/HCO3 coating buffer at pH 9.6, overnight at 4° C., in order to achieve a final immobilisation per well of 0.3 μg. Wells were then washed 3× in coating wash buffer (PBS/0.05% Tween (v/v)), blocked with 2% BSA (w/v) in coating wash buffer and washed 3 further times prior to assay. For the assay 20 μl of 12.5-37.5 nM recombinant human Flag-tagged PARP7 (amino acids 456-657) was added to each well of the 384-well plate for 30 min at room temperature. 50 nl of test compound in DMSO was added using pintool technology and plates were incubated for a further 30 min at room temperature. 5 μl of 15 μM biotin-NAD^+ assay solution in 20 mM HEPES (pH 7.5), 100 mM NaCl, 2 mM DTT, 0.1% BSA (w/v), 0.02% Tween (v/v) assay buffer was then added and MARylation proceeded for 2-3 h at room temperature prior to the addition of 5 μl of 12 mM NAD^+ quenching solution. After 30 min at room temperature, assay solution was removed and following washing 5 times, 100 μl of a 1:1000 dilution of DELFIA Eu-N1 Streptavidin reagent was added. Plates were then incubated for 30 min at room temperature. Reaction mixture was removed and plates washed 5 times prior to the addition of 25 μl DELFIA enhancement solution. Following incubation for 30 min at room temperature, fluorescence was read on either an Envision or Pherastar FS (Ex337 nm, Em620 nm).
By IC50 is commonly meant the point on the concentration scale where inhibition reaches its midpoint. With `CC1CN(C(=O)CCOCCn2ncc3c(=O)[nH]ncc32)CCN1c1ncc(C(F)(F)F)cn1` (stereo not shown) [Compound 137], the IC50 is not above 100 nM.
With `CC1CN(c2ncc(C(F)(F)F)cn2)CCN1C(=O)CCOCCn1cc(C(F)(F)F)c2c(=O)[nH]ncc21` (single isomer, unassigned) [Compound 371] the figure was not above 100 nM; with `CC(COCCC(=O)N1CCN(c2ccc(C#N)cn2)CC1)n1ncc2c(=O)[nH]ncc21` (single isomer, unassigned) [Compound 190], 100 to 1000 nM.
As to `O=C(CCOCCn1cc(C(F)(F)F)c2c(=O)[nH]ncc21)N1CCN(c2ccc(Cl)cn2)CC1` [Compound 238], the IC50 was not above 100 nM.
As for `N#Cc1ccc(N2CCN(C(=O)c3ccc(COc4cccc5c(=O)[nH]ncc45)cc3)CC2)nc1` [Compound 41], the concentration for half-maximal inhibition (IC50) was in the range of 1000 to 10000 nM.
In the case of `N#Cc1ccc(N2CCN(C(=O)CCOCCc3cc(F)cc4c(=O)[nH]ncc34)CC2)nc1` [Compound 81], the IC50 is not above 100 nM.
For `CC(COCCC(=O)N1CCN(c2ncc(C3COC3)cn2)CC1)n1nc(C(F)(F)F)c2c(=O)[nH]ncc21` (stereo not shown) [Compound 288] the value was not above 100 nM.
Turning to `CC1(C)CN(C(=O)CCOCCn2cc(C(F)(F)F)c3c(=O)[nH]ncc32)CCN1c1ncc(C(F)(F)F)cn1` [Compound 358], the IC50 was not above 100 nM.
For `O=C1NCNc2c(OCCOCC(=O)N3CCN(c4ncc(C(F)(F)F)cn4)CC3)cccc21` [Compound 47] the value was 1000 to 10000 nM.
Regarding `O=C(CCOCCc1ccc(Cl)c2c(=O)[nH]ncc12)N1CCN(c2ncc(C(F)(F)F)cn2)CC1` [Compound 226], the IC50 is not above 100 nM.
Take `N#Cc1ccc(N2CCN(C(=O)c3cccc(Cc4cccc5c(=O)[nH]ncc45)c3)CC2)cc1` [Compound 26]: the IC50 is 1000 to 10000 nM.
For `O=C(CCOCCn1nc(C(F)(F)F)c2c(=O)[nH]ncc21)N1CCN(c2ncc(C3CC3)cn2)CC1` [Compound 315] the value was not above 100 nM.
As to `O=C(CCOCCN1C(=O)CCc2c1cn[nH]c2=O)N1CCN(c2ncc(Cl)cn2)CC1` [Compound 242], the IC50 was not above 100 nM.
`CC1CN(C(=O)CCOCCn2cc(C(F)(F)F)c3c(=O)[nH]ncc32)CCN1c1ncc(C(F)(F)F)cn1` (stereo not shown) [Compound 372]: the IC50 was not above 100 nM.
In the case of `CS(=O)(=O)c1ccc(N2CCN(C(=O)CCOCCc3cccc4c(=O)[nH]ncc34)CC2)nc1` [Compound 113], the concentration for half-maximal inhibition (IC50) fell in the range of 100 to 1000 nM.
For the compound `CC(COCCC(=O)N1CCN(c2ncc(Cl)cn2)CC1)n1nc(C(F)(F)F)c2c(=O)[nH]ncc21` (single isomer, unassigned) [Compound 185], the IC50 was not above 100 nM.
For the compound `N#Cc1ccc(N2CCCN(C(=O)c3cccc(Cc4cccc5c(=O)[nH]ncc45)c3)CC2)nc1` [Compound 28], the IC50 fell in the range of 100 to 1000 nM.
For `Cc1nn(C(C)COCCC(=O)N2CCN(c3ncc(C#N)cn3)CC2)c2cn[nH]c(=O)c12` (single isomer, unassigned) [Compound 262] the value was not above 100 nM; for `N#Cc1cnc(N2CCN(C(=O)CCOCCc3cccc4c(=O)[nH]ncc34)CC2)nc1` [Compound 102], not above 100 nM.
For the compound `O=C(CCOCCc1cccc2c(=O)[nH]ncc12)N1CCN(c2ncc3c(n2)NCCC3)CC1` [Compound 220], the IC50 was not above 100 nM.
As to `CC(COCCC(=O)N1CCN(c2ncc(F)cn2)CC1)n1cc(C(F)(F)F)c2c(=O)[nH]ncc21` (single isomer, unassigned) [Compound 469], the IC50 is not above 100 nM.
Turning to `CC(COCCn1cc(C(F)(F)F)c2c(=O)[nH]ncc21)C(=O)N1CCN(c2ncc(C(F)(F)F)cn2)CC1` (single isomer, unassigned) [Compound 411], the IC50 was not above 100 nM.
Consider `O=C(CCOCCn1cc(C(F)F)c2c(=O)[nH]ncc21)N1CCN(c2ccc(C(F)(F)F)cn2)CC1` [Compound 200], for which the IC50 is not above 100 nM.
On to `O=C(CCOCCn1ncc2c(=O)[nH]ncc21)N1CCN(c2ccc(C(F)(F)F)cn2)CC1` [Compound 132], for which the IC50 is not above 100 nM.
`CC(COCCC(=O)N1CCN(c2ccc(C3CC3)cn2)CC1)n1nc(C(F)(F)F)c2c(=O)[nH]ncc21` (single isomer, unassigned) [Compound 279]: the IC50 is not above 100 nM.
As for `O=C(CCOCCn1c(C(F)(F)F)nc2c(=O)[nH]ncc21)N1CCN(c2ncc(C(F)(F)F)cn2)CC1` [Compound 184], the IC50 is 100 to 1000 nM.
With `[2H]C(C)(COCCC(=O)N1CCN(c2ncc(C(F)(F)F)cn2)CC1)n1cc(C(F)(F)F)c2c(=O)[nH]ncc21` (single isomer, unassigned) [Compound 477, 1-(1-(3-oxo-3-(4-(5-(trifluoromethyl)pyrimidin-2-yl)piperazin-1-yl)propoxy)propan-2-yl-2-d)-3-(trifluoromethyl)-1,5-dihydro-4H-pyrrolo[2,3-d]pyridazin-4-one], the half-maximal inhibitory concentration (IC50) was not above 100 nM.
On to `CC(COCCC(=O)N1CCN(c2ncc(C3COC3)cn2)CC1)n1nc(C(F)(F)F)c2c(=O)[nH]ncc21` (single isomer, unassigned) [Compound 289], for which the IC50 is not above 100 nM.
For `CC(COCCC(=O)N1CCN(c2ncc(C(F)(F)F)cn2)CC1)c1cccc2c(=O)[nH]ncc12` (single isomer, unassigned) [Compound 72, 5-(1-(3-oxo-3-(4-(5-(trifluoromethyl)pyrimidin-2-yl)piperazin-1-yl)propoxy)propan-2-yl)phthalazin-1(2H)-one] the value was 1000 to 10000 nM.
`Nc1nc(N2CCN(C(=O)CCOCCc3cccc4c(=O)[nH]ncc34)CC2)ncc1C(F)(F)F` [Compound 159]: the concentration for half-maximal inhibition (IC50) fell in the range of 100 to 1000 nM.
Regarding `CNC(=O)c1ccc(N2CCN(C(=O)CCOCC(C)n3nc(C(F)(F)F)c4c(=O)[nH]ncc43)CC2)nc1` (single isomer, unassigned) [Compound 305], the IC50 is not above 100 nM.
As for `O=C(CCOCCn1cc(C(F)(F)F)c2c(=O)[nH]ncc21)N1CCN(c2nc3ccc(Cl)cc3o2)CC1` [Compound 382], the IC50 is not above 100 nM.
As for `O=C(CCOCCn1cc(C(F)(F)F)c2c(=O)[nH]ncc21)N1CCN(c2nc3cc(Cl)ccc3o2)CC1` [Compound 359], the IC50 was not above 100 nM.
On to `O=C(c1cccc(Cn2nc(C(F)(F)F)c3c(=O)[nH]ncc32)c1)N1CCN(c2ncc(C(F)(F)F)cn2)CC1` [Compound 407], for which the IC50 was not above 100 nM.
Take `CC(COCCC(=O)N1CCN(c2ccc(C#N)cn2)CC1)n1ncc2c(=O)[nH]ncc21` (single isomer, unassigned) [Compound 189]: the IC50 was not above 100 nM.
`NCc1cc2c(=O)[nH]ncc2n1CCOCCC(=O)N1CCN(c2ncc(C(F)(F)F)cn2)CC1` [Compound 136]: the IC50 lay in the range of 100 to 1000 nM.
For `CC(CCOCC(=O)N1CCN(c2ncc(C(F)(F)F)cn2)CC1)n1nc(C(F)(F)F)c2c(=O)[nH]ncc21` (single isomer, unassigned) [Compound 327, 1-(4-(2-oxo-2-(4-(5-(trifluoromethyl)pyrimidin-2-yl)piperazin-1-yl)ethoxy)butan-2-yl)-3-(trifluoromethyl)-1,5-dihydro-4H-pyrazolo[3,4-d]pyridazin-4-one], the IC50 is not above 100 nM.
Consider `O=C(CCOCCn1cc(C(F)(F)F)c2c(=O)[nH]c(=O)[nH]c21)N1CCN(c2ncc(C(F)(F)F)cn2)CC1` [Compound 403], for which the IC50 was not above 100 nM.
Turning to `O=C(CCOCCn1ncc2c(=O)[nH]ncc21)N1CCN(c2ccc(C(F)(F)F)cc2)C(=O)C1` [Compound 337], the IC50 is 1000 to 10000 nM.
With `O=C(CCOCCn1nc(C(F)(F)F)c2c(=O)[nH]ncc21)N1CCN(c2nnc(C(F)(F)F)s2)CC1` [Compound 276], the IC50 is not above 100 nM.
For `CC(CCOCC(=O)N1CCN(c2ccc(C#N)cn2)CC1)n1nc(C(F)(F)F)c2c(=O)[nH]ncc21` (single isomer, unassigned) [Compound 466], the half-inhibitory concentration (IC50) was not above 100 nM.
For `CN(C(=O)COCCn1nc(C(F)(F)F)c2c(=O)[nH]ncc21)C1CCN(c2ncc(C(F)(F)F)cn2)CC1` [Compound 317, N-methyl-2-(2-(4-oxo-3-(trifluoromethyl)-4,5-dihydro-1H-pyrazolo[3,4-d]pyridazin-1-yl)ethoxy)-N-(1-(5-(trifluoromethyl)pyrimidin-2-yl)piperidin-4-yl)acetamide] the value was not above 100 nM.
In the case of `O=C(CCOCCn1cc(C(F)(F)F)c2c(=O)[nH]ncc21)N1CCN(c2nc3ccccc3[nH]2)CC1` [Compound 380], the IC50 was not above 100 nM.
